Reference: PMC12339328, “Therapeutic effect and mechanism of gigantol on hyperuricemia” (Frontiers in Endocrinology, 2025)
Values joined by “and” are separate entries in the source; they are usually repeats but may differ in a detail not shown here. Equal entries are not always repeated. “Also recorded” adds a separate entry of the source.

How the values were obtained:
OAT1 [1] = assay: OAT1 protein expression in HK-2 cells (Western blot); conditions: for OAT1 / β (reference protein) ratio / OAT1 protein expression, band value: HK-2, replicates 1-3
[2] = system: renal tissue in mice with HUA; assay: Renal histopathology of HUA mice (HE staining); assay type: in vivo; conditions: 200×, gigantol-treated groups
Text: The kidney and liver tissues were fixed with 4% paraformaldehyde solution. After paraffin embedding and sectioning, the paraffin on the slide was removed with xylene and soaked in different concentrations of ethanol and deionized water. The liver and kidney tissues were stained according to the HE staining procedure, and then the morphology of the kidney tissues and liver tissues was observed under the microscope.

NLRP3 = NLRP3 protein expression in kidney of HUA mice (Western blot); assay type: in vivo; conditions: gigantol high-dose group (20 mg/kg), vs model group, p < 0.01
TNF-α = TNF-α level in HK-2 HUA cell model (ELISA); assay type: cell-based, human; conditions: adenosine and XOD induction; gigantol 25, 50, 100 μmol/L
Protocol: HK-2 cells were treated as described above. The supernatant of the medium was collected, and the levels of proinflammatory cytokines (TNF-α, IL-6, and IL-1β) and the NLRP3 inflammasome component in the supernatant were detected using commercially available ELISA kits according to the manufacturers’ protocols.

OAT1 [3] = assay: OAT1 protein expression in kidney of HUA mice (Western blot); conditions: gigantol medium-dose and high-dose groups (10, 20 mg/kg), vs model group, p < 0.01
Caspase-1 = Caspase-1 protein expression in HK-2 cells (Western blot); conditions: for CASPASE / β (reference protein) ratio / CASPASE protein expression, band value: HK-2, replicates 1-3
OAT3 = OAT3 protein expression in kidney of HUA mice (Western blot); conditions: vs model group
IL-1β = IL-1β content in serum and kidney of HUA mice (ELISA); assay type: in vivo; conditions: gigantol low, medium, high dose intragastric, vs model group
Protocol: Blood obtained from mice in each group was centrifuged at 3,000 r/min for 15 min in a low-temperature high-speed centrifuge. Then, the serum was separated, and the levels of UA, CRE, and BUN in the serum were measured by the kits. The levels of TNF-α, IL-1β, IL-6, and NLRP3 in serum were detected by ELISA kits. Liver and kidney tissues were homogenized by adding ice-cold saline, and homogenates were centrifuged at 12,000 r/min for 10 min. XOD activity in the supernatant of the liver tissues was measured, and the levels of TNF-α, IL-1β, IL-6, and NLRP3 in the supernatant of the kidney tissues were measures by ELISA kits.

GLUT9 = GLUT9 protein expression in kidney of HUA mice (Western blot); assay type: in vivo; conditions: gigantol, dose-dependent, vs model group

5-[2-(3-hydroxy-5-methoxyphenyl) ethyl]-2-methoxyphenol [gigantol]
OAT1 / β (reference protein) ratio (OAT1 [1]; 中 = gigantol 50 µmol/L): 1.086 and 1.108 and 1.097
OAT1 protein expression, band value (OAT1 [1]; 中 = gigantol 50 µmol/L): 188.76 and 205.851 and 208.271
OAT1 / β (reference protein) ratio (OAT1 [1]; 低 = gigantol 25 µmol/L): 1.029 and 1.058 and 0.975
OAT1 protein expression, band value (OAT1 [1]; 低 = gigantol 25 µmol/L): 170.32 and 198.69 and 175.271
OAT1 / β (reference protein) ratio (OAT1 [1]; 高 = gigantol 100 µmol/L): 1.06 and 1.0745 and 1.075
OAT1 protein expression, band value (OAT1 [1]; 高 = gigantol 100 µmol/L): 197.371 and 210.308 and 209.271
OAT1 protein level in HK-2 cells (OAT1 [1]; HUA cell model, 50 and 100 µmol/L, vs model group): significantly increased
OAT1 protein expression in HK-2 cells (OAT1 [1]; HUA cell model, gigantol 25, 50, 100 µmol/L, dose-dependent): increase
renal histopathology: glomerulus injury [2]: a trend of recovery in the injury of the glomerulus
renal histopathology: urate crystals [2]: no urate crystals in the renal tubules
NLRP3 protein expression in kidney (NLRP3): decreased significantly
TNF-α level in HK-2 cells (TNF-α): tended to decrease dose-dependently
OAT1 protein expression in kidney (OAT1 [3]): increased
CASPASE / β (reference protein) ratio (Caspase-1; 中 = gigantol 50 µmol/L): 0.976 and 0.8978 and 0.9502
CASPASE protein expression, band value (Caspase-1; 中 = gigantol 50 µmol/L): 169.696 and 166.728 and 180.371
CASPASE / β (reference protein) ratio (Caspase-1; 低 = gigantol 25 µmol/L): 0.8128 and 1.007 and 1.064
CASPASE protein expression, band value (Caspase-1; 低 = gigantol 25 µmol/L): 134.57 and 189.238 and 191.281
CASPASE / β (reference protein) ratio (Caspase-1; 高 = gigantol 100 µmol/L): 0.7864 and 0.8188 and 0.8437
CASPASE protein expression, band value (Caspase-1; 高 = gigantol 100 µmol/L): 146.411 and 160.261 and 164.281
Caspase-1 protein level in HK-2 cells (Caspase-1; HUA cell model, gigantol 25, 50, 100 µmol/L, vs model group): significantly reduced; also recorded: decreased significantly
OAT3 protein expression in kidney (OAT3; gigantol low-dose group (5 mg/kg)): not in the low-dose group
OAT3 protein expression in kidney (OAT3; gigantol medium-dose and high-dose groups (10, 20 mg/kg), p < 0.05): increased
IL-1β level in kidney (IL-1β): decreased
IL-1β level in serum (IL-1β): decreased
GLUT9 protein expression in kidney (GLUT9): significantly reduced
